Test results taken from ChEMBL document CHEMBL1132350, “Quantitative structure-activity relationship modeling of dopamine D(1) antagonists using comparative molecular field analysis, genetic algorithms-partial least-squares, and K nearest neighbor methods” (J Med Chem, 1999).

Target: D(1A) dopamine receptor (Rattus norvegicus) (UniProt P18901)
Settings: Striatum
Description: Affinity towards dopamine receptor D1 in rat corpus striatum tissue.

D(1A) dopamine receptor (Rattus norvegicus), sequence (P18901 whole entry): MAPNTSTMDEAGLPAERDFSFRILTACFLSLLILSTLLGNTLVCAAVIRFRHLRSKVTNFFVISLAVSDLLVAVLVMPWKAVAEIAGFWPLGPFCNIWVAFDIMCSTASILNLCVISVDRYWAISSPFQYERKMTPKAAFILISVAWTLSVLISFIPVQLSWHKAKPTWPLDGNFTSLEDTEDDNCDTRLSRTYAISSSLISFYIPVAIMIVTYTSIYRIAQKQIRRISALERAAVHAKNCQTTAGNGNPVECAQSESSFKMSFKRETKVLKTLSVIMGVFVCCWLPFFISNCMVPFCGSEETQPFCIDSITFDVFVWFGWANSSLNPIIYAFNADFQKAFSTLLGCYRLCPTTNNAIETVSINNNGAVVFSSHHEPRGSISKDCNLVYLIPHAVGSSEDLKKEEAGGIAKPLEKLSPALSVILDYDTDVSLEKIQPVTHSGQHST

| -Log K0.5 | SMILES |
| --- | --- |
| 8.43 | Cc1cccc(C)c1C1c2cc(O)c(Cl)cc2CCN1C (stereo not given) |
| 5.53 | NC1CCc2ccc(O)cc2C1c1ccccc1 (stereo not given) |
| 8.56 | CC(C)c1ccccc1C1c2cc(O)c(Cl)cc2CCN1C (stereo not given) |
| 8.38 | Cc1cccc(C2c3cc(O)c(Cl)cc3CCN2C)c1 (stereo not given) |
| 8.28 | CN1CCc2cc(Cl)c(O)cc2C1c1ccccc1 (stereo not given) |
| 8 | Cc1cccc(C2c3cc(O)c(Cl)cc3CCN2C)c1C (stereo not given) |
| 7.97 | CN1CCc2cc(Br)c(O)cc2C1c1ccccc1 (stereo not given) |
| 6.37 | CN1CCc2ccc(O)cc2C1c1ccccc1 (stereo not given) |
| 5.46 | CNC1CCc2ccc(O)cc2C1c1ccccc1 (stereo not given) |
| 5.85 | CN(C)C1CCc2ccc(O)cc2C1c1ccccc1 (stereo not given) |
| 6.02 | CCCNC1CCc2ccc(O)cc2C1c1ccccc1 (stereo not given) |
| 7.05 | CCCN1CCc2cc(Cl)c(O)cc2C1c1ccccc1 (stereo not given) |
| 7.24 | CN1CCc2cc(Cl)c(O)cc2C1Cc1ccccc1 (stereo not given) |
| 5.96 | CN1CCc2ccccc2C2c3cc(O)c(I)cc3CCC21 (stereo not given) |
| 8.43 | Cc1ccccc1C1c2cc(O)c(Cl)cc2CCN1C (stereo not given) |
| 8.43 | CN1CCc2cc(Cl)c(O)cc2C1c1ccccc1Cl (stereo not given) |
| 5.82 | CCCN(C)C1CCc2ccc(O)cc2C1c1ccccc1 (stereo not given) |
| 7.54 | CN(C)c1ccccc1/C=C/N1CCc2cc(Cl)c(O)cc2C(c2ccccc2)C1 (stereo not given) |
| 7.43 | CN(C)c1ccccc1CCN1CCc2cc(Cl)c(O)cc2C(c2ccccc2)C1 (stereo not given) |
| 9.4 | CN1CCc2cc(Cl)c(O)cc2[C@@H](c2ccccc2)C1 |
| 8.28 | Cc1ccc(C2c3cc(O)c(Cl)cc3CCN2C)cc1 (stereo not given) |
| 5.68 | Oc1cc2c(cc1Cl)CCN1CCc3ccccc3C21 (stereo not given) |
| 6.86 | CNCCCCCCN1CCc2cc(Cl)c(O)cc2C(c2ccccc2)C1 (stereo not given) |
| 6.94 | CN(C)CCCCCCN1CCc2cc(Cl)c(O)cc2C(c2ccccc2)C1 (stereo not given) |

| SMILES | -Log K0.5 |
| --- | --- |
| CN1CCc2cc(Cl)c(O)cc2C2c3ccccc3CCC21 (stereo not given) | 8.3 |
